The target of test [1] is T1, epithelial sodium channel (Canis lupus familiaris, UniProt A0A8I3MKE6+A0A8I3Q679+Q95165).
T1 construct: endogenous in cells; host or cells: primary canine bronchial epithelial cells cultured at air-liquid interface
T1 sequence (A0A8I3Q679 1-649): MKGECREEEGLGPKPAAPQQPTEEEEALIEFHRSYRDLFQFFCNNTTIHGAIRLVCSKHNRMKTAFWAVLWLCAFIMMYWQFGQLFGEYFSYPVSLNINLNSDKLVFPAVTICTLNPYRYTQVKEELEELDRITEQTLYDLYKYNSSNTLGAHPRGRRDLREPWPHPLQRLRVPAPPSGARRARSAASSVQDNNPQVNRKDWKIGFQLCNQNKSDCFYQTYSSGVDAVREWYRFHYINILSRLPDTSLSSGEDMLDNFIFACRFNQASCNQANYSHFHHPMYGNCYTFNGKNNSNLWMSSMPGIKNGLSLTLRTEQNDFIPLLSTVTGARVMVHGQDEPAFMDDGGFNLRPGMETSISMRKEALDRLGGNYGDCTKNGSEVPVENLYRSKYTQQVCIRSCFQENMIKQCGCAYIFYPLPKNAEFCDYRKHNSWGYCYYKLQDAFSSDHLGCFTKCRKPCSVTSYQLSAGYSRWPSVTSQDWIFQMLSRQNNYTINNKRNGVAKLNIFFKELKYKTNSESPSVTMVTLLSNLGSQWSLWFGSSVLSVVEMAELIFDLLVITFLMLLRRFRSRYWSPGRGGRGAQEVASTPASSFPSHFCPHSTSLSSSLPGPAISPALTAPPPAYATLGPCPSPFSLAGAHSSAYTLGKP
T1 sequence (Q95165 1-641): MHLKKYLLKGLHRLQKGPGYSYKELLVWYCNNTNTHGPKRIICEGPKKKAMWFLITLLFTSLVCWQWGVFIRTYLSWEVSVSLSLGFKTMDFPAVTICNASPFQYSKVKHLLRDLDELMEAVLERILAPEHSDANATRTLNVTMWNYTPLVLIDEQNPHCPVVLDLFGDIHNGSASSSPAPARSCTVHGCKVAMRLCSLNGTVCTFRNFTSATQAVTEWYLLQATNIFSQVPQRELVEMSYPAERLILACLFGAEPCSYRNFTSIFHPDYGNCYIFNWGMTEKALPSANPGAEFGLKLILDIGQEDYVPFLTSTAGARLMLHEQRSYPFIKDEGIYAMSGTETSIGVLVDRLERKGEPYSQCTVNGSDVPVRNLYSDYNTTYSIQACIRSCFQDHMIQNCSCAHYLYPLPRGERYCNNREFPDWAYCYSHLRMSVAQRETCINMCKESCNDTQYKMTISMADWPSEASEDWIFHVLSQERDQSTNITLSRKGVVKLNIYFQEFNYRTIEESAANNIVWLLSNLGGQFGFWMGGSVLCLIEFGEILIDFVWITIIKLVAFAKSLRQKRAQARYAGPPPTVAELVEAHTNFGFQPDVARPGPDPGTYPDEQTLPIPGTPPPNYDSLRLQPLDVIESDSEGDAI
T1 sequence (A0A8I3MKE6 1-646): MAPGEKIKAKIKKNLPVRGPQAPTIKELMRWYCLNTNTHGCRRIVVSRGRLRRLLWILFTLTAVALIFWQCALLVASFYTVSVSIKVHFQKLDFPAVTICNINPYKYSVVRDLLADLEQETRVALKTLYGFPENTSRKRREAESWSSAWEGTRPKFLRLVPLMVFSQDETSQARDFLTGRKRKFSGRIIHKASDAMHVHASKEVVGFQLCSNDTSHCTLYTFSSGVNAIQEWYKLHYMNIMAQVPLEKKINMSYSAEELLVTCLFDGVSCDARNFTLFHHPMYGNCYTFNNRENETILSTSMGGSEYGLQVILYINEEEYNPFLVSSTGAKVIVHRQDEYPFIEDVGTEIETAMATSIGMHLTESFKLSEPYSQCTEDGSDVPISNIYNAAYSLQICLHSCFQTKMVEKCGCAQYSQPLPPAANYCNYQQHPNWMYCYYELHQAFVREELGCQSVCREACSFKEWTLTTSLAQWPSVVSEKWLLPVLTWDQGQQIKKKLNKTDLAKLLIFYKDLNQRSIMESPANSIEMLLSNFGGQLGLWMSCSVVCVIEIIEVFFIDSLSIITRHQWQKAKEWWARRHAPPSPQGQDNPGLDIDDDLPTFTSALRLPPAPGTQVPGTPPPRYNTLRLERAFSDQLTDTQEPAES
Kind of test: Inhibition of short-circuit current (ISC) in airway epithelial monolayers in Ussing chambers. In kind it is cell-based, canine. On the procedure: One assay used to assess mechanism of action and/or potency of the compounds of the present invention involves the determination of lumenal drug inhibition of airway epithelial sodium currents measured under short circuit current (ISC) using airway epithelial monolayers mounted in Using chambers. Cells obtained from freshly excised human, dog, sheep or rodent airways are seeded onto porous 0.4 micron Snapwelff Inserts (CoStar), cultured at air-liquid interface (ALI) conditions in hormonally defined media, and assayed for sodium transport activity (ISC) while bathed in Krebs Bicarbonate Ringer (KBR) in Using chambers. All test drug additions are to the lumenal bath with half-log dose addition protocols (from 1×10^−11 M to 3×10^−5 M), and the cumulative change in ISC (inhibition) recorded. All drugs are prepared in dimethyl sulfoxide as stock solutions at a concentration of 1×10^−2 M and stored at −20° C. […] After the maximal concentration ([…]) is administered, the lumenal bath is exchanged three times with fresh drug-free KBR solution, and the resultant ISC measured after each wash for approximately 5 minutes in duration. Reversibility is defined as the percent return to the baseline value for sodium current after the third wash. All data from the voltage clamps are collected via a computer interface and analyzed off-line.
Dose-effect relationships for all compounds are considered and analyzed by the Prism 3.0 program.

The subject of test [2] is Sheep MCC. The experiment in a line: Mucociliary clearance (MCC) studies in sheep. In kind it is in vivo. Particulars: sheep, 0.24 nmol/kg (3 μM); for effect on MCC compared to vehicle: 4 h post-dose; for AUC (% Cl-h) / Initial Slope (4.0-4.5 h): aerosol, MCC at 4 h post-dose. The protocol:
The animal model that has been used most often to measure changes in MCC is the sheep model. The effect of compounds for enhancing mucociliary clearance (MCC) can be measured using an in vivo model described by Sabater et al., Journal of Applied Physiology, 1999, pp. 2191-2196, incorporated herein by reference.
In these studies, adult sheep were restrained and nasally intubated with an endotracheal tube. Aerosolized test articles were administered over 10-15 minutes to sheep. Radiolabeled ^99mTc-sulfur colloid (TSC, 3.1 mg/mL; containing approximately 20 mCi) was then administered at a specified time four or eight hours after test article. The radiolabeled aerosol was administered through the endotracheal tube for about 5 minutes. The sheep were then extubated, and total radioactive counts in the lung were measured every 5 minutes for a 1-hour observation period. The rate of radiolabel clearance from the lung is representative of the MCC rate in the animal. The advantage of this system is that it closely simulates the human lung environment. The model also allows for the collection of simultaneous PK/PD information through plasma and urine sampling over the test period. There are also several techniques to measure the drug concentrations on the airway surface during the MCC measurements. These include the collection of exhaled breath condensates or a filter paper method to obtain ASL via bronchoscopy.
The ovine model described above was used to evaluate the in vivo effects (efficacy/durability) of aerosol-delivered test agent on MCC. Treatments consisting of either 4 mL of test agent or test agent in combination with HS were tested. To determine if combining HS with test agent enhanced MCC, HS was administered immediately following test agent administration. Test solutions were aerosolized using a Raindrop nebulizer at a flowrate of eight liters per minute and connected to a dosimetry system consisting of a solenoid valve and a source of compressed air (20 psi). The deposited dose of drug in sheep lungs after an aerosol administration using the Raindrop nebulizer is estimated to be 8-15% of the dose. Using a Raindrop nebulizer, radiolabeled TSC was administered over approximately 3 minutes either 4 or 8 hours after drug treatment to evaluate efficacy/durability. Radioactive counts were measured in a central region in the right lung at 5 min intervals for one hour with a gamma camera. Three methods of analysis were utilized, 1) initial rate of clearance (slope) over the first 30 min fitted using linear regression 2) area under the curve for % clearance over time over one hour, and 3) the maximum clearance obtained in one hour.

Setting [3] is: canine bronchial epithelial cells, short-circuit current, read-out: Potency of Sodium Channel Blockade IC50.

Read-outs that look alike come from different tables or passages of the source. Marks after values point to notes of the source that are not given here.

As a reminder, the IC50 is the concentration at which inhibition is half-maximal. Turning to `N=C(NCCCCc1ccc(C[C@H](N)C(=O)Nc2ccc(CCCCCCN(C[C@H](O)[C@@H](O)[C@H](O)[C@H](O)CO)C[C@H](O)[C@@H](O)[C@H](O)[C@H](O)CO)cc2)c2ccccc12)NC(=O)c1nc(Cl)c(N)nc1N` [Compound 48, 3,5-diamino-N—(N-(4-(4-((S)-2-amino-3-(4-(6-(bis((2S,3R,4R,5R)-2,3,4,5,6-pentahydroxyhexyl)amino)hexyl)phenylamino)-3-oxopropyl)naphthalen-1-yl)butyl)carbamimidoyl)-6-chloropyrazine-2-carboxamide], in test [1] (setting [3]), the IC50 worked out at 47 nM. Moreover, in test [2], the “effect on MCC compared to vehicle” value is reported as “Similarly Enhance MCC Compared to Vehicle”, the “AUC (% Cl-h)” value is recorded as 15.4* (2) % Cl-h and the “Initial Slope (4.0-4.5 h)” value is 29.8* (2). Consider `N=C(NCCCCc1ccc2cc(C[C@H](N)C(=O)Nc3ccc(CCCN(C[C@H](O)[C@@H](O)[C@H](O)[C@H](O)CO)C[C@H](O)[C@@H](O)[C@H](O)[C@H](O)CO)cc3)ccc2c1)NC(=O)c1nc(Cl)c(N)nc1N` [Compound 94, 3,5-diamino-N—(N-(4-(6-((S)-2-amino-3-(4-(3-(bis((2S,3R,4R,5R)-2,3,4,5,6-pentahydroxyhexyl)amino)propyl)phenylamino)-3-oxopropyl)naphthalen-2-yl)butyl)carbamimidoyl)-6-chloropyrazine-2-carboxamide], for which, in test [1] (setting [3]), the IC50 is 21.2 nM. Regarding `N=C(NCCCCc1ccc2cc(C[C@H](N)C(=O)Nc3ccc(CCCNC[C@H](O)[C@@H](O)[C@H](O)[C@H](O)CO)cc3)ccc2c1)NC(=O)c1nc(Cl)c(N)nc1N` [Compound 99, 3,5-diamino-N—(N-(4-(6-((S)-2-amino-3-oxo-3-(4-(3-((2S,3R,4R,5R)-2,3,4,5,6-pentahydroxyhexylamino)propyl)phenylamino)propyl)naphthalen-2-yl)butyl)carbamimidoyl)-6-chloropyrazine-2-carboxamide], the IC50 in test [1] (setting [3]) is 7.6 nM. On the same count and under the same terms, the result for `CN(C)CCCc1ccc(NC(=O)[C@@H](N)Cc2ccc3cc(CCCCNC(=N)NC(=O)c4nc(Cl)c(N)nc4N)ccc3c2)cc1` [Compound 103, (S)-3,5-diamino-N—(N-(4-(6-(2-amino-3-(4-(3-(dimethylamino)propyl)phenylamino)-3-oxopropyl)naphthalen-2-yl)butyl)carbamimidoyl)-6-chloropyrazine-2-carboxamide] reads 17.9 nM.

`CCCCCCN(CCCc1ccc(NC(=O)[C@@H](N)Cc2ccc(CCCCNC(=N)NC(=O)c3nc(Cl)c(N)nc3N)c3c2CCCC3)cc1)C[C@H](O)[C@@H](O)[C@H](O)[C@H](O)CO` [Compound 123, 3,5-diamino-N—(N-(4-(4-((S)-2-amino-3-(4-(3-(hexyl((2S,3R,4R,5R)-2,3,4,5,6-pentahydroxyhexyl)amino)propyl)phenylamino)-3-oxopropyl)-5,6,7,8-tetrahydronaphthalen-1-yl)butyl)carbamimidoyl)-6-chloropyrazine-2-carboxamide]: the IC50 in test [1] (setting [3]) was determined as 2.3 nM. Besides, in test [2], the “effect on MCC compared to vehicle” value is recorded as “Similarly Enhance MCC Compared to Vehicle”, the “AUC (% Cl-h)” value is listed as 14.4* (2) % Cl-h and the “Initial Slope (4.0-4.5 h)” value is 29.2* (2). As for `N=C(NCCCCc1ccc(C[C@H](N)C(=O)Nc2ccc(CCCN(C[C@H](O)[C@@H](O)[C@H](O)[C@H](O)CO)C[C@H](O)[C@@H](O)[C@H](O)[C@H](O)CO)cc2)c2c1CCCC2)NC(=O)c1nc(Cl)c(N)nc1N` [Compound 127, 3,5-diamino-N—(N-(4-(4-((S)-2-amino-3-(4-(3-(bis((2S,3R,4R,5R)-2,3,4,5,6-pentahydroxyhexyl)amino)propyl)phenylamino)-3-oxopropyl)-5,6,7,8-tetrahydronaphthalen-1-yl)butyl)carbamimidoyl)-6-chloropyrazine-2-carboxamide], the IC50 in test [1] (setting [3]) was found to be 8.6 nM. As for `NC(=NC(=O)c1nc(Cl)c(N)nc1N)NCCCCc1ccc(C[C@H](N)C(=O)Nc2ccc(CCCNC[C@H](O)[C@@H](O)[C@H](O)[C@H](O)CO)cc2)c2c1CCCC2` [Compound 131], the half-maximal inhibitory concentration (IC50) in test [1] came to 6 nM. Consider `CN(C)CCCc1ccc(NC(=O)[C@@H](N)Cc2ccc(CCCCNC(=N)NC(=O)c3nc(Cl)c(N)nc3N)c3c2CCCC3)cc1` [Compound 135, (S)-3,5-diamino-N—(N-(4-(4-(2-amino-3-(4-(3-(dimethylamino)propyl)phenylamino)-3-oxopropyl)-5,6,7,8-tetrahydronaphthalen-1-yl)butyl)carbamimidoyl)-6-chloropyrazine-2-carboxamide], for which the IC50 in test [1] (setting [3]) worked out at 5.2 nM.

Turning to `N=C(NCCCCc1ccc(C[C@H](N)C(=O)O)c2c1CCCC2)NC(=O)c1nc(Cl)c(N)nc1N` [Compound 139, (S)-2-amino-3-(4-(4-(3-(3,5-diamino-6-chloropyrazine-2-carbonyl)guanidino)butyl)-5,6,7,8-tetrahydronaphthalen-1-yl)propanoic acid], the IC50 in test [1] (setting [3]) is 73.7 nM.

These data come from patent US9593084B2 (Parion Sciences, Inc., priority 2012, dated 2017).
